# Tests used:
# [1] = tested on: Escherichia coli; assay: Antibacterial activity against Escherichia coli UTI 189 assessed as bacterial growth inhibition measured after 20 hrs by microdilution assay; assay type: functional
# [2] = tested on: Escherichia coli; assay: Antibacterial activity against Escherichia coli CFT 073 assessed as bacterial growth inhibition measured after 20 hrs by microdilution assay; assay type: functional
# [3] = tested on: Staphylococcus aureus; assay: Antibacterial activity against methicillin sensitive Staphylococcus aureus clinical isolate 18-3 assessed as bacterial growth inhibition measured after 18 to 20 hrs by broth microdilution assay; assay type: functional; conditions: time 18-20 hrs
# [4] = tested on: Staphylococcus aureus; assay: Antibacterial activity against clinical isolate methicillin resistant Staphylococcus aureus ATCC 43300 assessed as bacterial growth inhibition measured after 18 to 20 hrs by broth microdilution assay; assay type: functional; conditions: time 18-20 hrs
# [5] = tested on: Staphylococcus aureus; assay: Antibacterial activity against clinical isolate vancomycin intermediate resistant Staphylococcus aureus HIP 5827 assessed as bacterial growth inhibition measured after 18 to 20 hrs by broth microdilution assay; assay type: functional; conditions: time 18-20 hrs
# [6] = tested on: Staphylococcus aureus; assay: Antibacterial activity against clinical isolate methicillin resistant Staphylococcus aureus ATCC 33591 assessed as bacterial growth inhibition measured after 18 to 20 hrs by broth microdilution assay; assay type: functional; conditions: time 18-20 hrs
# [7] = tested on: Staphylococcus aureus; assay: Antibacterial activity against clinical isolate methicillin sensitive Staphylococcus aureus ATCC 29213 assessed as bacterial growth inhibition measured after 18 to 20 hrs by broth microdilution assay; assay type: functional; conditions: time 18-20 hrs
# [8] = tested on: Staphylococcus aureus; assay: Antibacterial activity against methicillin resistant Staphylococcus aureus clinical isolate 18-2 assessed as bacterial growth inhibition measured after 18 to 20 hrs by broth microdilution assay; assay type: functional; conditions: time 18-20 hrs
# [9] = Microsomal stability in mouse liver microsomes assessed as half life measured upto 60 mins in presence of NADPH by HPLC analysis; assay type: ADME, Microsome
# [10] = tested on: Staphylococcus aureus; assay: Antibacterial activity against clinical isolate vancomycin intermediate resistant Staphylococcus aureus HIP 5836 assessed as bacterial growth inhibition measured after 18 to 20 hrs by broth microdilution assay; assay type: functional; conditions: time 18-20 hrs
# [11] = tested on: Staphylococcus aureus; assay: Antibacterial activity against clinical isolate vancomycin intermediate resistant Staphylococcus aureus ATCC 700699 assessed as bacterial growth inhibition measured after 18 to 20 hrs by broth microdilution assay; assay type: functional; conditions: time 18-20 hrs
# [12] = tested on: Staphylococcus aureus; assay: Antibacterial activity against clinical isolate methicillin sensitive Staphylococcus aureus BAA 976 assessed as bacterial growth inhibition measured after 18 to 20 hrs by broth microdilution assay; assay type: functional; conditions: time 18-20 hrs
# [13] = tested on: Staphylococcus aureus; assay: Antibacterial activity against clinical isolate methicillin sensitive Staphylococcus aureus BAA 1708 assessed as bacterial growth inhibition measured after 18 to 20 hrs by broth microdilution assay; assay type: functional; conditions: time 18-20 hrs
# [14] = tested on: Staphylococcus aureus; assay: Antibacterial activity against methicillin sensitive Staphylococcus aureus clinical isolate 15 assessed as bacterial growth inhibition measured after 18 to 20 hrs by broth microdilution assay; assay type: functional; conditions: time 18-20 hrs
# [15] = Microsomal stability in mouse plasma assessed as half life measured upto 60 mins in presence of NADPH by HPLC analysis; assay type: ADME, cell-free
# [16] = tested on: Escherichia coli; assay: Antibacterial activity against Escherichia coli ATCC 25922 assessed as bacterial growth inhibition by broth microdilution assay; assay type: functional
# [17] = tested on: Staphylococcus aureus; assay: Antibacterial activity against Staphylococcus aureus ATCC 29213 assessed as bacterial growth inhibition by broth microdilution assay; assay type: functional
# [18] = tested on: Staphylococcus aureus; assay: Potency index, ratio of ciprofloxacin MIC to test compound MIC for antimicrobial activity against Staphylococcus aureus ATCC 25923 assessed as bacterial growth inhibition measured after 24 hrs by agar dilution assay; assay type: functional
# [19] = tested on: Staphylococcus aureus; assay: Antibacterial activity against Staphylococcus aureus ATCC 25923 assessed as bacterial growth inhibition measured after 16 hrs by broth microdilution assay; assay type: functional
# [20] = tested on: Staphylococcus aureus; assay: Antibacterial activity against Staphylococcus aureus ATCC 25923 assessed as bacterial growth inhibition measured after 24 hrs by agar dilution assay; assay type: functional
# [21] = tested on: Enterobacter cloacae; assay: Antibacterial activity against fosfomycin resistant Enterobacter cloacae assessed as bacterial growth inhibition measured after 24 hrs by agar dilution assay; assay type: functional
# [22] = tested on: Escherichia coli; assay: Antibacterial activity against Escherichia coli ATCC 25922 assessed as bacterial growth inhibition measured after 24 hrs by agar dilution assay; assay type: functional
# [23] = tested on: Pseudomonas aeruginosa; assay: Antibacterial activity against imipenem resistant Pseudomonas aeruginosa VIM-2 assessed as bacterial growth inhibition measured after 24 hrs by agar dilution assay; assay type: functional
smiles,measurement,setting,value
O=C(NCCCCCC(=O)N1CCN(c2cc3c(cc2F)c(=O)c(C(=O)O)cn3C2CC2)CC1)c1cc(O)c(O)c(C(=O)N[C@H]2COC(=O)[C@@H](NC(=O)c3cccc(O)c3O)COC(=O)[C@@H](NC(=O)c3cccc(O)c3O)COC2=O)c1,MIC,[1],0.1 µg/mL
same,MIC,[2],0.1 µg/mL
CCCCCc1nc2ccccc2c(=O)n1NC(=O)c1c(O)c2ccccc2n(CC)c1=O,MIC,[3],4 µg/mL
same,MIC,[4],4 µg/mL
same,MIC,[5],4 µg/mL
same,MIC,[6],4 µg/mL
same,MIC,[7],4 µg/mL
same,MIC,[8],4 µg/mL
same,half-life,[9],> 373 min
same,MIC,[10],4 µg/mL
same,MIC,[11],4 µg/mL
same,MIC,[12],4 µg/mL
same,MIC,[13],4 µg/mL
same,MIC,[14],4 µg/mL
same,half-life,[15],24.5 min
O=C(O)c1cn(C2CC2)c2cc(N3CCN(Cc4nc5ccccc5c(=O)[nH]4)CC3)c(F)cc2c1=O,MIC,[16],0.25 µg/mL
same,MIC,[17],0.031 µg/mL
COc1cccc2ccc(C(=O)N3CCN(c4cc5c(cc4F)c(=O)c(C(=O)O)cn5C4CC4)CC3)nc12,Ratio,[18],2
same,MIC,[19],0.2 µg/mL
CCOP(=O)(OCC)C(Nc1ncc(-c2cc3ccccc3oc2=O)s1)c1cc2ccccc2[nH]c1=O (stereo not drawn),MIC,[20],0.25 µg/mL
same,MIC,[21],0.25 µg/mL
same,MIC,[22],0.25 µg/mL
same,MIC,[23],0.25 µg/mL
